Laboratory results from the NIST ThermoML archive (doi:10.1016/j.jct.2006.12.012).

Experiment: xn = mol fraction of the nth substance listed
Conditions: 101 kPa, Liquid

C[S+](C)[O-] [dimethyl sulfoxide] + O
Conditions | mass density, 298.15 K [kg/m3] | mass density, 303.15 K [kg/m3] | mass density, 308.15 K [kg/m3] | viscosity, 298.15 K [mPa·s] | viscosity, 303.15 K [mPa·s] | viscosity, 308.15 K [mPa·s]
x1 = 0.0238 | 1009.5 | 1007.8 | 1005.89 | 1.033 | 0.9386 | 0.8541
x1 = 0.0489 | 1021.56 | 1019.59 | 1017.38 | 1.258 | 1.148 | 1.041
x1 = 0.0796 | 1034.64 | 1032.3 | 1029.76 | 1.597 | 1.454 | 1.309
x1 = 0.1183 | 1048.91 | 1046.26 | 1043.35 | 2.067 | 1.872 | 1.671
x1 = 0.1587 | 1061.32 | 1058.32 | 1055.11 | 2.549 | 2.295 | 2.036
x1 = 0.2036 | 1072.5 | 1069.04 | 1065.5 | 3.017 | 2.704 | 2.389
x1 = 0.2379 | 1079.21 | 1075.61 | 1071.77 | 3.301 | 2.954 | 2.604
x1 = 0.2768 | 1085.26 | 1081.43 | 1077.51 | 3.537 | 3.162 | 2.786
x1 = 0.3074 | 1088.96 | 1085.02 | 1080.99 | 3.656 | 3.269 | 2.881
x1 = 0.3335 | 1091.44 | 1087.45 | 1083.41 | 3.714 | 3.322 | 2.93
x1 = 0.3638 | 1093.61 | 1089.68 | 1085.47 | 3.735 | 3.344 | 2.953
x1 = 0.3906 | 1095.11 | 1091.09 | 1086.84 | 3.717 | 3.331 | –
x1 = 0.4412 | 1097.04 | 1092.88 | – | 3.606 | 3.241 | –
x1 = 0.5193 | 1098.34 | 1094.01 | – | 3.312 | 2.992 | –
x1 = 0.5677 | 1098.66 | 1094.24 | – | 3.102 | 2.81 | –
x1 = 0.6195 | 1098.86 | 1094.29 | – | 2.883 | 2.62 | –
x1 = 0.6813 | 1098.85 | 1094.13 | – | 2.656 | 2.421 | –
x1 = 0.7595 | 1098.49 | 1093.75 | – | 2.432 | 2.225 | –
x1 = 0.8095 | 1098.02 | 1093.29 | – | 2.32 | 2.129 | –
x1 = 0.8856 | 1097.3 | 1092.53 | – | 2.175 | 2.006 | –
x1 = 0.9407 | 1096.83 | 1091.95 | – | 2.08 | 1.92 | –
x1 = 0.9781 | 1096.41 | 1091.56 | – | 2.024 | 1.863 | –
x1 = 1 | 1096.29 | 1091.44 | – | 1.996 | 1.836 | –
